US20030143744A1, “Method for the production of cotton somatic embryos” (priority 2000, published 2003)

Legend:
Assay type in all cases: cell-based, Cotton (Gossypium hirsutum L.)
[1] = test system: epidermal strips of Coker line 312; experiment: Callus initiation from epidermal strips of Coker line 312; details: cytokinin at 4.9 μM, medium further supplemented with NAA (10.7 μM); basal region of bract
Procedure: Following disinfection, bracts were soaked in sterile distilled water, for at least 3 h, to facilitate peeling. Epidermal strips were carefully excised from the lower epidermis, using fine forceps under sterile conditions. The enzymatic treatment of epidermal strips was tested for the removal of all contaminating mesophyll and vascular tissues as follows: strips were immersed for 2-3.5 h, in a filter sterilised solution containing Linsmaier & Skoog salts (1965), Cellulysin (0.2% w/v), Hemicellulase (0.2% w/v), polyvinylpyrrolidone (PVP-40, 0.1% w/v) and pH adjusted to 5.5.
Epidermal fragments (3-10 mm size), with or without enzymatic treatment, were placed in Petri dishes (32 mm in diameter) containing 2 ml semi-solid medium, with the cuticle side either in contact with the medium or upwards.
(§1) A basal medium containing Murashige and Skoog ((1962) Physiol Plant 15: 473-497.) salts, Trolinder & Goodin ((1988a) Plant Cell Tiss Org Cult 12: 31-42.) vitamins and glucose (166.5 mM equivalent to 30 g.l^−1) was used throughout the experiments. For callus initiation, basal medium was supplemented with naphthalene acetic acid (NAA, 2.7, 5.4, 10.7 and 21.5 μM) and isopentenyladenine (iP, 1.3, 2.5 and 4.9 μM). In addition, the effects of thidiazuron (tdz), kinetin (kin) and iP, each at a concentration of 4.9 μM, were tested for their effect on callus morphology and development. Callus initiation was evaluated after 3-6 weeks. Media was used as liquid or solidified (geirite 1.6 g.l^−1 plus 7.9 mM MgCl2). Twenty to thirty epidermal strips were cultured per dish.
The effect of shading of the culture dishes on callus initiation was also evaluated. One or two dishes containing a layer of culture medium (2 ml) were placed on the top of dishes containing the cultures. Dishes were incubated on full light (26.3 μmol. m^−2.s^−1) or under reduced light irradiance, respectively, under shade from 1 dish (21.0 μmol. m^−2.s^−1) or shading from two dishes (15.8 μmol. m^−2.s^−1).

[2] = test system: both Coker lines (312 and 315); experiment: Callus initiation, growth and morphology by growth regulators
Procedure: as §1
Epidermal strips were excised from the whole bract of Coker line 315 and cultured on medium containing NAA (2.7, 5.4, 10.7 and 21.5 μM) and iP (1.3, 2.5 and 4.9 μM). Two to four independent experiments were carried out and 1300 epidermal strips were used in these studies.
Callus initiation, growth and morphology from both Coker lines (312 and 315) were influenced by the growth regulators in the callus initiation medium. […] In addition, there were no statistical significant differences in callus induction frequency within the remaining range of treatments tested.

[3] = test system: embryogenic callus / somatic embryos; experiment: Somatic embryo histodifferentiation on differentiation medium
Procedure: Following callus initiation, calluses were sub-cultured, every 4-5 weeks, to callus initiation medium or to basal medium without growth regulators, either solidified or liquid, agitated (under orbital shaking at 110 rpm) or to the surface of filter paper (Whatman™ n° 1) bridges, inserted into macrowell plates (34 mm in diameter, well), containing 3-4 ml of liquid medium to induce somatic embryogenesis. Liquid cultures were maintained by subculture at 2 week intervals. Primary calli containing embryogenic clumps were sub-cultured to somatic embryo differentiation media. A culture medium similar to embryogenesis callus induction medium was used, but modified to contain 10 mM glutamine (Price and Smith 1979 (Planta 145: 305-307.), Cousins et al. 1991 Aust. J. Plant Physiol. 18: 481-494.), 5.4 μM NAA, 2.5 μM iP and solidified with 0.2% gelrite. The effect of abscisic acid (ABA, 0.0, 0.19, 0.38, 1.9 μM) on somatic embryo histodifferentiation was tested.

Structure (SMILES): c1coc(CNc2ncnc3[nH]cnc23)c1 [Kin, kinetin]
- callus induction [1]: 8.6±0.7%

Structure (SMILES): CC(C)=CCNc1ncnc2nc[nH]c12 [iP, isopentenyladenine]
- time to similar size of callus ([2]; iP 1.2 μM): 8 weeks
- time to macroscopic calluses ([2]; iP 4.9 μM): 4-5 weeks
- callus induction [1]: 36.3±15.8%

Structure (SMILES): CC1=CC(=O)CC(C)(C)[C@@]1(O)/C=C/C(C)=C\C(=O)O [ABA, abscisic acid]
- somatic embryo differentiation ([3]; ABA 0.0 or 1.9 μM): less uniform
- somatic embryo differentiation ([3]; ABA 0.19-0.38 μM, after 3-4 weeks): Synchronised embryo differentiation and improved somatic embryo uniformity

Structure (SMILES): O=C(Nc1ccccc1)Nc1cnns1 [Tdz, thidiazuron]
- callus induction [1]: 31.3±4.5%
